Experimental data published in patent US20120149715A1, “COMPOUNDS AND METHODS FOR THE TREATMENT OF VIRAL INFECTIONS” (priority 2010, published 2012).

Tested on: A/Vietnam/1194/04 H5N1 virus
Parameters: species or system BALB/c mice
Details: mouse, in vivo

## Nucleozin
  animals that survived for more than 21 days: 90%
ip
  survival rate after inoculation compared with untreated controls: significantly higher survival rate
